Measurements reported in patent US6358885B1, “Substituted phenylheterocyclic herbicides” (Mississippi State University, priority 1992, dated 2002).

Legend:
soybean [1] = assay: Test B preemergence/postemergence greenhouse plant response rating 0 to 10; assay type: in vivo, Glycine max; details: 0 to 10 scale
In short: (§1)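 Both application timings were run together: seeds got compound preemergence, and established seedlings (two to eighteen cm) got it postemergence. Non-phytotoxic solvent carried the chemical. Ratings are visual, versus controls, at twelve to sixteen days.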

chickweed [2] = assay: as above; assay type: in vivo, Stellaria media; details: 0 to 10 scale
In short: as §1

morningglory [3] = assay: as above; assay type: in vivo, Ipomoea hederacea; details: 0 to 10 scale
In short: as §1

purple nutsedge = assay: as above; assay type: in vivo, Cyperus rotundus; details: 0 to 10 scale
In short: as §1

bedstraw = assay: Test C preemergence/postemergence greenhouse plant response rating 0 to 100; assay type: in vivo, Galium aparine; details: for Plant response rating, Bedstraw: 62 g/ha, 0 to 100 scale
In short: (§2)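 Compounds in non-phytotoxic solvent applied preemergence to sandy loam one day after planting, postemergence at the 1–4 leaf stage, or to ~2.5 cm floodwater over silt loam.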

barley = assay: as above; assay type: in vivo, Hordeum vulgare; details: for Plant response rating Barley Igri: 62 g/ha, 0 to 100 scale
In short: as §2

corn = assay: Test B preemergence/postemergence greenhouse plant response rating 0 to 10; assay type: in vivo, Zea mays; details: 0 to 10 scale
In short: as §1

umbrella sedge = assay: Test C flood test plant response rating 0 to 100; assay type: in vivo, Cyperus difformis
In short: as §2

sorghum = assay: Test B preemergence/postemergence greenhouse plant response rating 0 to 10; assay type: in vivo, Sorghum bicolor; details: 0 to 10 scale
In short: as §1

wild buckwheat = assay: Test C preemergence/postemergence greenhouse plant response rating 0 to 100; assay type: in vivo, Polygonum convolvulus
In short: as §2

chickweed [4] = assay: as above; assay type: in vivo, Stellaria media; details: for Plant response rating, Chickweed: 62 g/ha, 0 to 100 scale
In short: as §2

wild oat = assay: Test B preemergence/postemergence greenhouse plant response rating 0 to 10; assay type: in vivo, Avena fatua; details: 0 to 10 scale
In short: as §1

wheat = assay: as above; assay type: in vivo, Triticum aestivum; details: 0 to 10 scale
In short: as §1

rape = assay: as above; assay type: in vivo, Brassica napus; details: 0 to 10 scale
In short: as §1

morningglory [5] = assay: Test C preemergence/postemergence greenhouse plant response rating 0 to 100; assay type: in vivo, Ipomoea hederacea; details: for Plant response rating, Morningglory: 62 g/ha, 0 to 100 scale
In short: as §2

downy brome = assay: as above; assay type: in vivo, Bromus tectorum; details: for Plant response rating Downy Brome: 62 g/ha, 0 to 100 scale
In short: as §2

soybean [6] = assay: as above; assay type: in vivo, Glycine max
In short: as §2

crabgrass = assay: Test B preemergence/postemergence greenhouse plant response rating 0 to 10; assay type: in vivo, Digitaria spp.; details: 0 to 10 scale
In short: as §1

[7] = POSTEMERGENCE, 62 g/ha, 0 to 100 scale

## CCN1C(=O)COc2cc(F)c(-c3nn4c(c3Cl)CCCC4)cc21 [Compound 54]
Soybean [1]; POSTEMERGENCE, Rate 10 g/ha
  Plant response rating, Soybean: 8
Soybean [1]; POSTEMERGENCE, Rate 50 g/ha
  Plant response rating, Soybean: 9
Soybean [1]; PREEMERGENCE, Rate 50 g/ha
  Plant response rating, Soybean: 0
Chickweed [2]; POSTEMERGENCE, Rate 50 g/ha
  Plant response rating, Chickweed: 10
Chickweed [2]; PREEMERGENCE, Rate 10 g/ha
  Plant response rating, Chickweed: 9
Chickweed [2]; PREEMERGENCE, Rate 50 g/ha
  Plant response rating, Chickweed: 10
Morningglory [3]; POSTEMERGENCE, Rate 10 g/ha
  Plant response rating, Morningglory: 9
Morningglory [3]; POSTEMERGENCE, Rate 50 g/ha
  Plant response rating, Morningglory: 9
Morningglory [3]; PREEMERGENCE, Rate 50 g/ha
  Plant response rating, Morningglory: 3
Purple nutsedge; POSTEMERGENCE, Rate 10 g/ha
  Plant response rating, Nutsedge: 2
Purple nutsedge; POSTEMERGENCE, Rate 50 g/ha
  Plant response rating, Nutsedge: 2
Purple nutsedge; PREEMERGENCE, Rate 50 g/ha
  Plant response rating, Nutsedge: 0
bedstraw; POSTEMERGENCE
  Plant response rating, Bedstraw: 100
bedstraw; POSTEMERGENCE, Rate 1 g/ha
  Plant response rating (0 to 100), Bedstraw: 65
bedstraw; POSTEMERGENCE, Rate 4 g/ha
  Plant response rating (0 to 100), Bedstraw: 85
bedstraw; PREEMERGENCE
  Plant response rating, Bedstraw: 50
bedstraw; PREEMERGENCE, Rate 1 g/ha
  Plant response rating (0 to 100), Bedstraw: 0
bedstraw; PREEMERGENCE, Rate 4 g/ha
  Plant response rating (0 to 100), Bedstraw: 0
bedstraw; Rate 16 g/ha, POSTEMERGENCE
  Plant response rating (0 to 100), Bedstraw: 100
bedstraw; Rate 16 g/ha, PREEMERGENCE
  Plant response rating (0 to 100), Bedstraw: 30
barley; POSTEMERGENCE
  Plant response rating Barley Igri: 50
barley; POSTEMERGENCE, Rate 1 g/ha
  Plant response rating (0 to 100), Barley Igri: 30
barley; POSTEMERGENCE, Rate 4 g/ha
  Plant response rating (0 to 100), Barley Igri: 40
barley; PREEMERGENCE
  Plant response rating Barley Igri: 10
barley; PREEMERGENCE, Rate 1 g/ha
  Plant response rating (0 to 100), Barley Igri: 0
barley; PREEMERGENCE, Rate 4 g/ha
  Plant response rating (0 to 100), Barley Igri: 0
barley; Rate 16 g/ha, POSTEMERGENCE
  Plant response rating (0 to 100), Barley Igri: 50
barley; Rate 16 g/ha, PREEMERGENCE
  Plant response rating (0 to 100), Barley Igri: 0
corn; POSTEMERGENCE, Rate 10 g/ha
  Plant response rating, Corn: 3
corn; POSTEMERGENCE, Rate 50 g/ha
  Plant response rating, Corn: 3
corn; PREEMERGENCE, Rate 50 g/ha
  Plant response rating, Corn: 0
Umbrella sedge; POSTEMERGENCE section, flood test, Rate 1 g/ha
  Plant response rating (0 to 100), Umbrella sedge: 0
Umbrella sedge; POSTEMERGENCE section, flood test, Rate 4 g/ha
  Plant response rating (0 to 100), Umbrella sedge: 0
Umbrella sedge; Rate 16 g/ha, under POSTEMERGENCE head (flood test species)
  Plant response rating (0 to 100), Umbrella sedge: 10
Umbrella sedge; flood test species listed under POSTEMERGENCE, 62 g/ha, 0 to 100 scale
  Plant response rating Umbrella sedge: 70
sorghum; POSTEMERGENCE, Rate 10 g/ha
  Plant response rating, Sorghum: 3
sorghum; POSTEMERGENCE, Rate 50 g/ha
  Plant response rating, Sorghum: 3
sorghum; PREEMERGENCE, Rate 50 g/ha
  Plant response rating, Sorghum: 1
Wild buckwheat; [7]
  Plant response rating, Wild buckwheat: 100
Wild buckwheat; POSTEMERGENCE, Rate 1 g/ha
  Plant response rating (0 to 100), Wild buckwheat: 100
Wild buckwheat; POSTEMERGENCE, Rate 4 g/ha
  Plant response rating (0 to 100), Wild buckwheat: 100
Wild buckwheat; PREEMERGENCE, Rate 1 g/ha
  Plant response rating (0 to 100), Wild buckwheat: 0
Wild buckwheat; PREEMERGENCE, Rate 4 g/ha
  Plant response rating (0 to 100), Wild buckwheat: 0
Wild buckwheat; Rate 16 g/ha, POSTEMERGENCE
  Plant response rating (0 to 100), Wild buckwheat: 100
Wild buckwheat; Rate 16 g/ha, PREEMERGENCE
  Plant response rating (0 to 100), Wild buckwheat: 100
Chickweed [4]; POSTEMERGENCE
  Plant response rating, Chickweed: 100
Chickweed [4]; POSTEMERGENCE, Rate 1 g/ha
  Plant response rating (0 to 100), Chickweed: 60
Chickweed [4]; POSTEMERGENCE, Rate 4 g/ha
  Plant response rating (0 to 100), Chickweed: 75
Chickweed [4]; PREEMERGENCE
  Plant response rating, Chickweed: 100
Chickweed [4]; PREEMERGENCE, Rate 1 g/ha
  Plant response rating (0 to 100), Chickweed: 0
Chickweed [4]; PREEMERGENCE, Rate 4 g/ha
  Plant response rating (0 to 100), Chickweed: 0
Chickweed [4]; Rate 16 g/ha, POSTEMERGENCE
  Plant response rating (0 to 100), Chickweed: 100
Chickweed [4]; Rate 16 g/ha, PREEMERGENCE
  Plant response rating (0 to 100), Chickweed: 20
Wild oat; POSTEMERGENCE, Rate 10 g/ha
  Plant response rating, Wild oat: 4
Wild oat; POSTEMERGENCE, Rate 50 g/ha
  Plant response rating, Wild oat: 7
Wild oat; PREEMERGENCE, Rate 50 g/ha
  Plant response rating, Wild oat: 2
wheat; POSTEMERGENCE, Rate 10 g/ha
  Plant response rating, Wheat: 6
wheat; POSTEMERGENCE, Rate 50 g/ha
  Plant response rating, Wheat: 6
wheat; PREEMERGENCE, Rate 50 g/ha
  Plant response rating, Wheat: 3
rape; POSTEMERGENCE, Rate 10 g/ha
  Plant response rating, Rape: 10
rape; POSTEMERGENCE, Rate 50 g/ha
  Plant response rating, Rape: 10
rape; PREEMERGENCE, Rate 50 g/ha
  Plant response rating, Rape: 6
Morningglory [5]; POSTEMERGENCE
  Plant response rating, Morningglory: 100
Morningglory [5]; POSTEMERGENCE, Rate 1 g/ha
  Plant response rating (0 to 100), Morningglory: 60
Morningglory [5]; POSTEMERGENCE, Rate 4 g/ha
  Plant response rating (0 to 100), Morningglory: 100
Morningglory [5]; PREEMERGENCE
  Plant response rating, Morningglory: 20
Morningglory [5]; PREEMERGENCE, Rate 1 g/ha
  Plant response rating (0 to 100), Morningglory: 0
Morningglory [5]; PREEMERGENCE, Rate 4 g/ha
  Plant response rating (0 to 100), Morningglory: 0
Morningglory [5]; Rate 16 g/ha, POSTEMERGENCE
  Plant response rating (0 to 100), Morningglory: 100
Morningglory [5]; Rate 16 g/ha, PREEMERGENCE
  Plant response rating (0 to 100), Morningglory: 0
Downy brome; POSTEMERGENCE
  Plant response rating Downy Brome: 60
Downy brome; POSTEMERGENCE, Rate 1 g/ha
  Plant response rating (0 to 100), Downy Brome: 10
Downy brome; POSTEMERGENCE, Rate 4 g/ha
  Plant response rating (0 to 100), Downy Brome: 30
Downy brome; PREEMERGENCE
  Plant response rating Downy Brome: 30
Downy brome; PREEMERGENCE, Rate 1 g/ha
  Plant response rating (0 to 100), Downy Brome: 0
Downy brome; PREEMERGENCE, Rate 4 g/ha
  Plant response rating (0 to 100), Downy Brome: 0
Downy brome; Rate 16 g/ha, POSTEMERGENCE
  Plant response rating (0 to 100), Downy Brome: 50
Downy brome; Rate 16 g/ha, PREEMERGENCE
  Plant response rating (0 to 100), Downy Brome: 20
Soybean [6]; [7]
  Plant response rating, Soybean: 95
Soybean [6]; POSTEMERGENCE, Rate 1 g/ha
  Plant response rating (0 to 100), Soybean: 50
Soybean [6]; POSTEMERGENCE, Rate 4 g/ha
  Plant response rating (0 to 100), Soybean: 65
Soybean [6]; PREEMERGENCE, Rate 1 g/ha
  Plant response rating (0 to 100), Soybean: 0
Soybean [6]; PREEMERGENCE, Rate 4 g/ha
  Plant response rating (0 to 100), Soybean: 0
Soybean [6]; Rate 16 g/ha, POSTEMERGENCE
  Plant response rating (0 to 100), Soybean: 85
Soybean [6]; Rate 16 g/ha, PREEMERGENCE
  Plant response rating (0 to 100), Soybean: 0
crabgrass; POSTEMERGENCE, Rate 10 g/ha
  Plant response rating, Crabgrass: 2
crabgrass; POSTEMERGENCE, Rate 50 g/ha
  Plant response rating, Crabgrass: 3
crabgrass; PREEMERGENCE, Rate 10 g/ha
  Plant response rating, Crabgrass: 0
crabgrass; PREEMERGENCE, Rate 50 g/ha
  Plant response rating, Crabgrass: 0
